Assay results published in article doi:10.1101/208439v1 (biorxiv, 2017).
Like-named read-outs stand apart in the source and are kept apart here.

Experiments:
PRMT8 = biological target: T1, PRMT8 (Homo sapiens, UniProt Q9NR22); experiment: HotSpot [3H]SAM filter-binding methyltransferase assay; assay type: biochemical
T1 construct: residues 61-394, N- and C-terminal His tags, E. coli

MLL4 Complex = MLL4 Complex (Homo sapiens, UniProt Q9UMN6); experiment: as above; assay type: biochemical; set-up: gene KMT2B; complex assembled as MLL1; MLL4 here is KMT2B (NM_014727), His tag, E. coli; with WD repeat-containing protein 5; Set1/Ash2 histone methyltransferase complex subunit ASH2; Protein dpy-30 homolog
Chain of MLL4 Complex (Q9C005 whole entry): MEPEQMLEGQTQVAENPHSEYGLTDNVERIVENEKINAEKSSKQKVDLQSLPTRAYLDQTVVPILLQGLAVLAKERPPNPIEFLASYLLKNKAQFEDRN
Chain of MLL4 Complex (Q9UBL3 96-628, further chain): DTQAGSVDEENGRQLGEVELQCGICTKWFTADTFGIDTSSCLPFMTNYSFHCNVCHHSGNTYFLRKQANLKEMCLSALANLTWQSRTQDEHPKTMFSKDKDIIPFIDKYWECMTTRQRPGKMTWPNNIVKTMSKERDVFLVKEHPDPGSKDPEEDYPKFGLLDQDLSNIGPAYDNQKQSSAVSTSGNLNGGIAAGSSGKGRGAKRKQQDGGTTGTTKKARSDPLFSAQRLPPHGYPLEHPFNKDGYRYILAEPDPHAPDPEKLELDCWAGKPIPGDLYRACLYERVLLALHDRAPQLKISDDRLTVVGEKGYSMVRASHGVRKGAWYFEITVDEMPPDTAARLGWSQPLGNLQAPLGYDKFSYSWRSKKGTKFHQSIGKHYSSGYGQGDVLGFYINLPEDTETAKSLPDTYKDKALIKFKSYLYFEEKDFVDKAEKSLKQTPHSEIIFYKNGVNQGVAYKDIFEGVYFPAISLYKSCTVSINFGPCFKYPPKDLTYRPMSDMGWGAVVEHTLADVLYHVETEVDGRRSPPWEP
Chain of MLL4 Complex (Q15291 whole entry, further chain): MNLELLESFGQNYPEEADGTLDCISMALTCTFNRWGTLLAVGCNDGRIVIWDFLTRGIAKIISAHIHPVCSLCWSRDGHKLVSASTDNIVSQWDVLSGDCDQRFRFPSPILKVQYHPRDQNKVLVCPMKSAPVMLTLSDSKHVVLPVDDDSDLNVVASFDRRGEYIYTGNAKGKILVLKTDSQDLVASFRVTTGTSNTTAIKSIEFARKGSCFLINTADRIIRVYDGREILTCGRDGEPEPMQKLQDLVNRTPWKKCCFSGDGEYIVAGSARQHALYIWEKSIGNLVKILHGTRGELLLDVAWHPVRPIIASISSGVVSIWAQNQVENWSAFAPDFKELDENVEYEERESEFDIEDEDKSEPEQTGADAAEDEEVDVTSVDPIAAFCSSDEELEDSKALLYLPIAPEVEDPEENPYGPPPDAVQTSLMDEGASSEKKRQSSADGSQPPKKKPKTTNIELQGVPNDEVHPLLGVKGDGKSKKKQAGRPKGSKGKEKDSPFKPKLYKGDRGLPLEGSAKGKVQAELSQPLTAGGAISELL
Chain of MLL4 Complex (Q9UMN6 2490-2715): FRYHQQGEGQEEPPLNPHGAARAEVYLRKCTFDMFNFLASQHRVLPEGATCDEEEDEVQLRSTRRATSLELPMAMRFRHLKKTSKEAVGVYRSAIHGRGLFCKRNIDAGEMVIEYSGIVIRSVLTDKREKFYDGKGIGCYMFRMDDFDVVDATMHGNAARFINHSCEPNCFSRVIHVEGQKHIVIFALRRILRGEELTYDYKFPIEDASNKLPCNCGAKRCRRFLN

MLL2 Complex = MLL2 Complex (Homo sapiens, UniProt O14686); experiment: as above; assay type: biochemical; set-up: gene KMT2D; complex assembled as MLL1; MLL2 here is KMT2D (NM_003482), His tag, E. coli; with WD repeat-containing protein 5; Set1/Ash2 histone methyltransferase complex subunit ASH2; Protein dpy-30 homolog
Chain of MLL2 Complex (O14686 5319-5537): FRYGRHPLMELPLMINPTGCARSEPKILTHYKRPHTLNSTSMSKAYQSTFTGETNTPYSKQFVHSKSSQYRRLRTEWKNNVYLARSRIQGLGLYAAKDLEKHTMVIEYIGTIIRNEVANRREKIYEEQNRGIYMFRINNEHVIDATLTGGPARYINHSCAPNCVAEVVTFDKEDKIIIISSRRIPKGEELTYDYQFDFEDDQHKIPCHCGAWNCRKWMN
Chain of MLL2 Complex (Q15291 whole entry, further chain): as the sequence (Q15291 whole entry, further chain) above
Chain of MLL2 Complex (Q9UBL3 96-628, further chain): as the sequence (Q9UBL3 96-628, further chain) above
Chain of MLL2 Complex (Q9C005 whole entry, further chain): as the sequence (Q9C005 whole entry) above

SET7/9 = biological target: T2, SET7/9 (Homo sapiens, UniProt Q8WTS6); experiment: biochemical
T2 construct: gene SETD7
T2 sequence (Q8WTS6 1-366): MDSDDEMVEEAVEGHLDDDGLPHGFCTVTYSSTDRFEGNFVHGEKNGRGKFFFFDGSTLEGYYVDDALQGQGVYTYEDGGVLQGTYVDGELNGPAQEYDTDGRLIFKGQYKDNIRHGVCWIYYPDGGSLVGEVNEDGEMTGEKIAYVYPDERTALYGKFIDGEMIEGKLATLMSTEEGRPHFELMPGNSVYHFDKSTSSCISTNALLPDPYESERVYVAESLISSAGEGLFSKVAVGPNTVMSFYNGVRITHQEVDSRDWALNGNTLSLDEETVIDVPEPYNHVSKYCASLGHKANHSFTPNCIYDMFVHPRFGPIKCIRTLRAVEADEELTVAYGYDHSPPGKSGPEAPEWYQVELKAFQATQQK

PRMT6 = PRMT6 (Homo sapiens, UniProt Q96LA8); conditions: read-out: DA3003-1 IC50; inhibitor
Chain of PRMT6 (Q96LA8 whole entry): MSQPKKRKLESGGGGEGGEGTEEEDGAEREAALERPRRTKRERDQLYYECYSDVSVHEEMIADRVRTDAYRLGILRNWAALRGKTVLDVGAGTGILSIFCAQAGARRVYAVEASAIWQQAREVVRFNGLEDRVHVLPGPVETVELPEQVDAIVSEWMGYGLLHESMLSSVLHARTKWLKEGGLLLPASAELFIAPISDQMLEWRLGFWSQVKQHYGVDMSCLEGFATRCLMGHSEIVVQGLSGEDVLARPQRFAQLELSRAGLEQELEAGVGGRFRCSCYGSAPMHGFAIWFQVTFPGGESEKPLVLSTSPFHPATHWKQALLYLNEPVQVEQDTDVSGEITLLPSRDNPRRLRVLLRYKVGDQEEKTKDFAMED

PRMT4 = biological target: T3, PRMT4 (Homo sapiens, UniProt Q86X55); conditions: read-out: DA3003-1 IC50; inhibitor
T3 construct: gene CARM1
T3 sequence (Q86X55 whole entry): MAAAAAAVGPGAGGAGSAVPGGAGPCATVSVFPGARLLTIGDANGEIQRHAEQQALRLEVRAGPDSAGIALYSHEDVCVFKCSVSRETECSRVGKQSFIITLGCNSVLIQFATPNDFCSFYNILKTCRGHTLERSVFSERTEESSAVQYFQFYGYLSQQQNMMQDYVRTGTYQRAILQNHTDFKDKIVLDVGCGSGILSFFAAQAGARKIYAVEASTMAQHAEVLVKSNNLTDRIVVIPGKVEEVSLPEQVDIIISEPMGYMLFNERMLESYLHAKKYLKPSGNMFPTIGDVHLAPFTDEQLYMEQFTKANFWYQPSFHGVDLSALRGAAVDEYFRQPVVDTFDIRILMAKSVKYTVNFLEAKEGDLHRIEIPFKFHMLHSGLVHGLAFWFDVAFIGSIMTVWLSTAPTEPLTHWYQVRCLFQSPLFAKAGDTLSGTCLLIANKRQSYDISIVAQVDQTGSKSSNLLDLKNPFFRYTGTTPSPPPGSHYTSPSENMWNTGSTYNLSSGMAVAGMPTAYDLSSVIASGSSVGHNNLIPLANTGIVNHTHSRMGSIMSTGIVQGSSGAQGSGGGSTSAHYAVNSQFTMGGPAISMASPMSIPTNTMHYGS

MLL3 Complex = MLL3 Complex (Homo sapiens, UniProt Q8NEZ4); experiment: HotSpot [3H]SAM filter-binding methyltransferase assay; assay type: biochemical; set-up: gene KMT2C; complex assembled as MLL1; MLL3 His tag, E. coli; with WD repeat-containing protein 5; Set1/Ash2 histone methyltransferase complex subunit ASH2; Protein dpy-30 homolog; conditions: core histone, […] SAM, pH […] MgCl2, […] DTT, […] °C, single experiment
Chain of MLL3 Complex (Q9C005 whole entry): as the sequence (Q9C005 whole entry) above
Chain of MLL3 Complex (Q8NEZ4 4689-4911): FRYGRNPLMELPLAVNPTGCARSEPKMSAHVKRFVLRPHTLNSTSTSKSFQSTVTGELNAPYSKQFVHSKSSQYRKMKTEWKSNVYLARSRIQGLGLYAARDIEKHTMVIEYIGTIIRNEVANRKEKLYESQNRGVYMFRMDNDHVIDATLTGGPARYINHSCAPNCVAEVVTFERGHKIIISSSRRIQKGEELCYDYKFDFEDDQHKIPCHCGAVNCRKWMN
Chain of MLL3 Complex (Q9UBL3 96-628, further chain): as the sequence (Q9UBL3 96-628, further chain) above
Chain of MLL3 Complex (Q15291 whole entry, further chain): as the sequence (Q15291 whole entry, further chain) above

PRMT5/MEP50 Complex = biological target: T4, PRMT5/MEP50 Complex (Homo sapiens, UniProt O14744); experiment: as above; assay type: biochemical; conditions: histone H2A, […] SAM, pH […] DTT, […] °C, single experiment
T4 construct: coexpressed Flag-PRMT5 and His-MEP50, insect cell/baculovirus; with Methylosome protein WDR77
T4 sequence (O14744 2-637): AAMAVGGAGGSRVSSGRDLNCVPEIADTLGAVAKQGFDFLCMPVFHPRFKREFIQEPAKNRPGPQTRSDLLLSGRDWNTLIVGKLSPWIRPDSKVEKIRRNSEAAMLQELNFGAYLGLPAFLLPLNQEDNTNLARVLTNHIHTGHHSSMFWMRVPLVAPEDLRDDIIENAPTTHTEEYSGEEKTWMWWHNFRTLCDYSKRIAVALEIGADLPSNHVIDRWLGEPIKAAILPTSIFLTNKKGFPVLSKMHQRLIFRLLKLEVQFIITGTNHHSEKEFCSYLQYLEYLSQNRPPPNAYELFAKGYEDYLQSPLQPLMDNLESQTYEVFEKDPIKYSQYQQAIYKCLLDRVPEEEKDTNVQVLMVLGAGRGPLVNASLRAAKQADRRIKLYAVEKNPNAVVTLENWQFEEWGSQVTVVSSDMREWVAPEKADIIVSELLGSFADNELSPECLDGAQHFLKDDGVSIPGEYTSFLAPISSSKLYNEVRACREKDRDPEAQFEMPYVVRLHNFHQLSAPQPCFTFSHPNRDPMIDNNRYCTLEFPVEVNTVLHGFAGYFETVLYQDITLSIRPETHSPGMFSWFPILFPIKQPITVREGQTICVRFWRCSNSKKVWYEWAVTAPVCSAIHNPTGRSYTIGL
T4 sequence (Q9BQA1 2-342 partner): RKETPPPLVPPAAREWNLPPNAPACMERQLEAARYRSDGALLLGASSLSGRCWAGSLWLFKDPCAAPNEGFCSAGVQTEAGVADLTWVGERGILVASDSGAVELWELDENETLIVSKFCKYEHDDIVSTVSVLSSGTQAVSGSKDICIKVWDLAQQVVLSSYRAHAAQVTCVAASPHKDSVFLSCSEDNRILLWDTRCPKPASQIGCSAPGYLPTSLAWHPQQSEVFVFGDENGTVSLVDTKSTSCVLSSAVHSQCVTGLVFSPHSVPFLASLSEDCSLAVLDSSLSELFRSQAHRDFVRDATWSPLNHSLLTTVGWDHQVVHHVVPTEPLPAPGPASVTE

[1] = nucleosomes, […] SAM, pH […] MgCl2, […] DTT, […] °C, single experiment

T1 sequence (Q9NR22 61-394): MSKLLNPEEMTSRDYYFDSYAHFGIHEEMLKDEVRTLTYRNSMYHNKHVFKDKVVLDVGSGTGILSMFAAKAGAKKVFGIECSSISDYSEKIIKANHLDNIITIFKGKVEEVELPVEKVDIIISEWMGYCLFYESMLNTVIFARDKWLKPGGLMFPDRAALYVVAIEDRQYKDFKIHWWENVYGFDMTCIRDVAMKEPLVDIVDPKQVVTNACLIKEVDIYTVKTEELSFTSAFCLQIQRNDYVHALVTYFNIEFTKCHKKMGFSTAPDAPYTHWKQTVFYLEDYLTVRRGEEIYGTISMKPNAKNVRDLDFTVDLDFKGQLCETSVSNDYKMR

## CC1(C)CCC(CN2CCN(c3ccc(C(=O)NS(=O)(=O)c4ccc(NCC5CCOCC5)c([N+](=O)[O-])c4)c(Oc4cnc5[nH]ccc5c4)c3)CC2)=C(c2ccc(Cl)cc2)C1 [ABT-199]
PRMT8
  IC50: 34 µM
MLL4 Complex
  IC50: 0.52 µM
MLL2 Complex
  IC50: 4.6 µM

## O=C1C(Cl)=C(NCCN2CCOCC2)C(=O)c2ncccc21 [DA3003-1]
SET7/9; read-out: DA3003-1 IC50, inhibitor
  IC50: 1.4 µM
PRMT6
  IC50: 1 µM
PRMT4
  IC50: 1.4 µM

## COc1cccc(-n2nc(C(=O)O)cc2-c2ccc(C3CCCCC3)c(Cl)c2)c1 [TC LPA5 4]
PRMT8; histone H4, […] SAM, pH […] MgCl2, […] DTT, […] °C, single experiment
  IC50: 71 µM
SET7/9
  IC50: 52 µM
MLL3 Complex
  IC50: 63 µM
PRMT5/MEP50 Complex
  IC50: 0.33 µM
MLL4 Complex; [1]
  IC50: 1 µM
MLL2 Complex; [1]
  IC50: 18 µM
